Assays:
[1] = biological target: T1, HDAC-1 (Homo sapiens, UniProt Q13547); test: HDAC inhibition assay (purified GST-HDAC protein); format: biochemical
T1 construct: made in house; host or cells: Sf9 or Sf21 insect cells (baculovirus, donor vector pFB-GSTX3)
Text: The baculovirus donor vector pFB-GSTX3 was used to generate a recombinant baculovirus that can express the HDAC polypeptide. Transfer vectors containing the HDAC coding region were transfected into the DH10Bac cell line (GIBCO) and plated on selective agar plates. Colonies without insertion of the fusion sequence into the viral genome (carried by the bacteria) were blue. Single, white colonies were picked and viral DNAs (bacmid) were isolated from the bacteria by standard plasmid purification procedures. Sf9 cells or Sf21 (American Type Culture Collection) cells were then transfected in […] flasks with the viral DNA using Cellfectin reagent.
Virus-containing media was collected from the transfected cell culture and used for infection to increase its titer. Virus-containing media obtained after two rounds of infection was used for large-scale protein expression. For large-scale protein expression 100 cm^2 round tissue culture plates were seeded with 5×10^7 cells/plate and infected with 1 mL of virus-containing media (at an approximately MOI of 5). After 3 days, the cells were scraped off the plate and centrifuged at 500 rpm for 5 minutes. Cell pellets from 10-20, 100 cm^2 plates, were re-suspended in 50 mL of ice-cold lysis buffer (25 mM tris-HCl, pH 7.5, 2 mM EDTA, 1% NP-40, 1 mM DTT, 1 mM P MSF). The cells were stirred on ice for 15 minutes and then centrifuged at 5,000 rpms for 20 minutes.
The centrifuged cell lysate was loaded onto a 2 mL glutathione-sepharose column (Pharmacia) and was washed thrice with 10 mL of 25 mM tris-HCl, pH 7.5, 2 mM EDTA, 1 mM DTT, 200 mM NaCl. The GST-tagged proteins were then eluted by 10 applications (1 mL each) of 25 mM tris-HCl, pH 7.5, 10 mM reduced-glutathione, 100 mM NaCl, 1 mM DTT, 10% glycerol and stored at −70° C.
HDAC assays with purified GST-HDAC protein were carried out in a final volume of 30 μL containing 15 ng of GST-HDAC protein, 20 mM tris-HCl, pH 7.5, 1 mM MnCl2, 10 mM MgCl2, 1 mM DTT, 3 μg/mL poly(Glu,Tyr) 4:1, 1% DMSO, 2.0 μM ATP (γ-[^33P]-ATP 0.1 μCi). The activity was assayed in the presence or absence of inhibitors. The assay was carried out in 96-well plates at ambient temperature for 15 minutes under conditions described below and terminated by the addition of 20 μL of 125 mM EDTA. Subsequently, 40 μL of the reaction mixture were transferred onto EMMOBILON-PVDF membrane (Millipore) previously soaked for 5 minutes with methanol, rinsed with water, then soaked for 5 minutes with 0.5% H3PO4 and mounted on vacuum manifold with disconnected vacuum source. After spotting all samples, a vacuum was connected and each well rinsed with 200 μL 0.5% H3PO4. Membranes were removed and washed four times on a shaker with 1.0% H3PO4, once with ethanol. Membranes were counted after drying at ambient temperature, mounting in Packard TopCount 96-well frame, and addition of 10 μL/well of MICROSCINT™ (Packard). IC50 values were calculated by linear regression analysis of the percentage inhibition of each compound in duplicate, at 4 concentrations (usually 0.01, 0.1, 1 and 10 μM).
• Input: 3×4 μL stopped assay on IMMOBILON membrane, not washed • Background (3 wells): assay with H2O instead of enzyme • Positive control (4 wells): 3% DMSO instead of compound • Bath control (1 well): no reaction mix
IC50 values were calculated by logarithmic regression analysis of the percentage inhibition of each compound at 4 concentrations (usually 3- or 10-fold dilution series starting at 10 μM). In each experiment, the actual inhibition by reference compound was used for normalization of IC50 values to the basis of an average value of the reference inhibitor: Normalized IC50=measured IC50 average ref IC50/measured ref IC50
Example: Reference inhibitor in experiment 0.4 μM, average 0.3 μM, Test compound in experiment 1.0 μM, normalization: 0.3/0.4=0.75 μM
For example, known HDAC inhibitors or a synthetic derivative thereof may be used as reference compounds.

[2] = system: HCT116; test: HCT116 IC50; format: cell-based; settings: Homo sapiens, HCT-116

T1 sequence (Q13547 whole entry, species assumed): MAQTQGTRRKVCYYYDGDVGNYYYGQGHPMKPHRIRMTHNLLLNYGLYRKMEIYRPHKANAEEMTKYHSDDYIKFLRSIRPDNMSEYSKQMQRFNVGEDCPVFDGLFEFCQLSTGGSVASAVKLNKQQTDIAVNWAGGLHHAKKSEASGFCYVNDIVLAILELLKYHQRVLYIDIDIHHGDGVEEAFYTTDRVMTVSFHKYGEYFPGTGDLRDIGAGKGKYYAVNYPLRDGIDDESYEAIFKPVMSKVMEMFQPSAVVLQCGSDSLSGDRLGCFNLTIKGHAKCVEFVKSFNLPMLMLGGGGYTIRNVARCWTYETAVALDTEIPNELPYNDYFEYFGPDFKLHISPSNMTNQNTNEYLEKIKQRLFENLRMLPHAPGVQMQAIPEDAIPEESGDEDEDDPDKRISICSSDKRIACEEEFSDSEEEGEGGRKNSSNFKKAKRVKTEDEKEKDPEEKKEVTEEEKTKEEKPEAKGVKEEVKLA

| SMILES | IC50 [1] [nM] | IC50 [2] [nM] |
| --- | --- | --- |
| O=C(/C=C/c1ccc([C@@H]2CCCN2CCn2cccn2)cc1)NO [Compound 63, (E)-N-Hydroxy-3-{4-[(S)-1-(2-pyrazol-1-yl-ethyl)-pyrrolidin-2-yl]-phenyl}-acrylamide] | 42 | 180 |
| O=C(/C=C/c1ccc(C2CCCN2CCc2ccc(O)cc2)cc1)NO (centres unmarked) [Compound 20, (E)-N-Hydroxy-3-(4-{1-[2-(4-hydroxy-phenyl)-ethyl]-pyrrolidin-2-yl}-phenyl)-acrylamide] | 3 | 11 |
| Cc1nc2ccccn2c1CCN1CCC[C@H]1c1ccc(/C=C/C(=O)NO)cc1 [Compound 54, (E)-N-Hydroxy-3-(4-{(S)-1-[2-(2-methyl-imidazo[1,2-a]pyridin-3-yl)-ethyl]-pyrrolidin-2-yl}-phenyl)-acrylamide] | 3 | 4 |
| O=C(/C=C/c1ccc(C2CCCN2CCc2ccccn2)cc1)NO (centres unmarked) [Compound 34, (E)-N-Hydroxy-3-{4-[1-(2-pyridin-2-yl-ethyl)-pyrrolidin-2-yl]-phenyl}-acrylamide] | 21 | 77 |
| O=C(/C=C/c1ccc([C@@H]2CCCN2CCc2ccc(F)cc2)cc1)NO [Compound 21, (E)-3-(4-{(S)-1-[2-(4-Fluoro-phenyl)-ethyl]-pyrrolidin-2-yl}-phenyl)-N-hydroxy-acrylamide] | 8 | 21 |
| Cc1cnn(CCN2CCC[C@H]2c2ccc(/C=C/C(=O)NO)cc2)c1 [Compound 64, (E)-N-Hydroxy-3-(4-{(S)-1-[2-(4-methyl-pyrazol-1-yl)-ethyl]-pyrrolidin-2-yl}-phenyl)-acrylamide] | 62 | 190 |
| O=C(/C=C/c1ccc([C@@H]2CCCN2CCc2cnn3ccccc23)c(Cl)c1)NO [Compound 92, (E)-3-{3-Chloro-4-[(S)-1-(2-pyrazolo[1,5-a]pyridin-3-yl-ethyl)-pyrrolidin-2-yl]-phenyl}-N-hydroxy-acrylamide] | 4 | 3 |
| O=C(/C=C/c1ccc([C@@H]2CCCN2CCc2c(-c3cccnc3)nn3ccccc23)cc1)NO [Compound 50, (E)-N-Hydroxy-3-(4-{(S)-1-[2-(2-pyridin-3-yl-pyrazolo[1,5-a]pyridin-3-yl)-ethyl]-pyrrolidin-2-yl}-phenyl)-acrylamide] | 1 | 0.4 |
| Cc1ccnn1CCN1CCC[C@H]1c1ccc(/C=C/C(=O)NO)cc1 [Compound 72, (E)-N-Hydroxy-3-(4-{(S)-1-[2-(5-methyl-pyrazol-1-yl)-ethyl]-pyrrolidin-2-yl}-phenyl)-acrylamide] | 19 | 31 |
| CC(C)(C)n1nnc(CCN2CCC[C@H]2c2ccc(/C=C/C(=O)NO)cc2)n1 [Compound 104, (E)-3-(4-{(S)-1-[2-(2-tert-Butyl-2H-tetrazol-5-yl)-ethyl]-pyrrolidin-2-yl}-phenyl)-N-hydroxy-acrylamide] | 42 | 360 |
| O=C(/C=C/c1ccc([C@@H]2CCCCCN2CCc2cnn3ccccc23)cc1)NO [Compound 86, (E)-N-Hydroxy-3-{4-[(S)-1-(2-pyrazolo[1,5-a]pyridin-3-yl-ethyl)-azepan-2-yl]-phenyl}-acrylamide] | 10 | 42 |
| Cc1[nH]nc(C(C)(C)C)c1CCN1CCC[C@H]1c1ccc(/C=C/C(=O)NO)cc1 [Compound 100, (E)-3-(4-{(S)-1-[2-(3-tert-Butyl-5-methyl-1H-pyrazol-4-yl)-ethyl]-pyrrolidin-2-yl}-phenyl)-N-hydroxy-acrylamide] | 1 | 0.5 |
| Cc1[nH]c2ccccc2c1CCN1CCNCC1c1ccc(/C=C/C(=O)NO)cc1 (centres unmarked) [Compound 89, (E)-N-Hydroxy-3-(4-{1-[2-(2-methyl-1H-indol-3-yl)-ethyl]-piperazin-2-yl}-phenyl)-acrylamide] | 7 | 200 |
| O=C(/C=C/c1ccc(C2CCCN2CC(O)c2ccccc2)cc1)NO (centres unmarked) [Compound 28, (E)-N-Hydroxy-3-{4-[1-(2-hydroxy-2-phenyl-ethyl)-pyrrolidin-2-yl]-phenyl}-acrylamide] | 25 | 85 |
| CC(C)n1nnnc1CCN1CCC[C@H]1c1ccc(/C=C/C(=O)NO)cc1 [Compound 102, (E)-N-Hydroxy-3-(4-{(S)-1-[2-(1-isopropyl-1H-tetrazol-5-yl)-ethyl]-pyrrolidin-2-yl}-phenyl)-acrylamide] | 25 | 32 |
| Cc1nn(-c2ccccc2)c(C)c1CCN1CCC[C@H]1c1ccc(/C=C/C(=O)NO)cc1 [Compound 55, (E)-3-(4-{(S)-1-[2-(3,5-Dimethyl-1-phenyl-1H-pyrazol-4-yl)-ethyl]-pyrrolidin-2-yl}-phenyl)-N-hydroxy-acrylamide] | 2 | 1.1 |
| Cc1n[nH]c(C)c1CCN1CCC[C@H]1c1ccc(/C=C/C(=O)NO)cc1 [Compound 95, (E)-3-(4-{(S)-1-[2-(3,5-Dimethyl-1H-pyrazol-4-yl)-ethyl]-pyrrolidin-2-yl}-phenyl)-N-hydroxy-acrylamide] | 1.6 | 3 |
| CC(C)(C)c1[nH]c2cc([N+](=O)[O-])ccc2c1CCN1CCCC1c1ccc(/C=C/C(=O)NO)cc1 (centres unmarked) [Compound 9, (E)-3-(4-{1-[2-(2-tert-Butyl-6-nitro-1H-indol-3-yl)-ethyl]-pyrrolidin-2-yl}-phenyl)-N-hydroxy-acrylamide] | 7 | 0.5 |
| Cn1nnc(CCN2CCC[C@H]2c2ccc(/C=C/C(=O)NO)cc2)n1 [Compound 81, (E)-N-Hydroxy-3-(4-{(S)-1-[2-(2-methyl-2H-tetrazol-5-yl)-ethyl]-pyrrolidin-2-yl}-phenyl)-acrylamide] | 67 | 230 |
| Cc1[nH]c2ccccc2c1CC(=O)N1CCCC1c1ccc(/C=C/C(=O)NO)cc1 (centres unmarked) [Compound 12, (E)-N-Hydroxy-3-(4-{1-[2-(2-methyl-1H-indol-3-yl)-acetyl]-pyrrolidin-2-yl}-phenyl)-acrylamide] | 4 | 96 |
| CC(C)(C)c1[nH]nnc1CCN1CCC[C@H]1c1ccc(/C=C/C(=O)NO)cc1 [Compound 108, (E)-3-(4-{(S)-1-[2-(5-tert-Butyl-1H-[1,2,3]triazol-4-yl)-ethyl]-pyrrolidin-2-yl}-phenyl)-N-hydroxy-acrylamide] | 7 | 10 |
| Cc1nn(C(C)(C)C)c(C)c1CCN1CCC[C@H]1c1ccc(/C=C/C(=O)NO)cc1 [Compound 61, (E)-3-(4-{(S)-1-[2-(1-tert-Butyl-3,5-dimethyl-1H-pyrazol-4-yl)-ethyl]-pyrrolidin-2-yl}-phenyl)-N-hydroxy-acrylamide] | 7 | 8 |
| Cc1nn(CCN2CCC[C@H]2c2ccc(/C=C/C(=O)NO)cc2)c(C)c1Br [Compound 69, (E)-3-(4-{(S)-1-[2-(4-Bromo-3,5-dimethyl-pyrazol-1-yl)-ethyl]-pyrrolidin-2-yl}-phenyl)-N-hydroxy-acrylamide] | 25 | 170 |
| O=C(/C=C/c1ccc(C2CCCN2CCc2ccc(Cl)c(Cl)c2)cc1)NO (centres unmarked) [Compound 23, (E)-3-(4-{1-[2-(3,4-Dichloro-phenyl)-ethyl]-pyrrolidin-2-yl}-phenyl)-N-hydroxy-acrylamide] | 19 | 97 |
| O=C(/C=C/c1ccc([C@@H]2CCCN2CCC2CCOCC2)cc1)NO [Compound 42, (E)-N-Hydroxy-3-(4-{(S)-1-[2-(tetrahydro-pyran-4-yl)-ethyl]-pyrrolidin-2-yl}-phenyl)-acrylamide] | 32 | 53 |
